# Reference: patent US6737407B1, “Treatment of obesity” (Metabolic Pharmaceuticals, Ltd., priority 1997, dated 2004)
# Where no end group is shown, it is not given here.
# Assays:
# Type in all cases: cell-based, rat
# [1] = tested on: hormone-sensitive lipase; assay: Hormone-sensitive lipase (HSL) assay in isolated adipocytes
# Method: The enzyme was expressed as U/mg protein, where the release of 1 nmole of oleic acid per hour was considered as 1 Unit of enzyme activity.
# Hormone-sensitive lipase (HSL) activity of isolated adipocytes was used as a model to evaluate the lipolytic effect of hGH 177-191 peptide and analogues. In this assay [C^14]-triolein was used as a substrate by HSL. The amount of hydrolyzed [C^14]-oleic acid was determined and used as an index of HSL activity.
# The adipocytes were prepared from the epididymal fat pads of male Zucker fatty (fa/fa) rats by collagenase digestion. Fat pads (5 g) were finely-cut into small (2-3 mm) pieces and placed in a siliconised glass vial containing 10 ml digestion medium. […] The isolated adipocytes were resuspended with 10 ml collagen-free buffer and the concentration of adipocytes was estimated by counting an aliquot of a pre-determined volume of cells on a microscope slide. […]
# The HSL activity was measured at 37° C. for 1 hour in a final volume of 200 μl, containing 10 μmoles phosphate buffer (pH 7.0). […] The [C^14]-radioactivity was measured by a liquid scintillation counter. […] The HSL activity was expressed as U/mg protein, where the release of 1 nmole of oleic acid per hour was defined as 1 U of enzyme activity.
# [2] = tested on: acetyl-CoA carboxylase; assay: Acetyl-CoA carboxylase assay in isolated adipocytes and hepatocytes
# Method: Acetyl-CoA carboxylase catalyzes the critical step in fatty acid synthesis. The acetyl-CoA carboxylase activities of both isolated adipocytes and hepatocytes in the presence of hGH 177-191 peptide or analogues were measured for the evaluation of the anti-lipogenic effect of the peptides. The acetyl-CoA carboxylase activity was determined by the [C^14]-bicarbonate fixation reaction—the rate of incorporation of acetyl-CoA dependent H[C^14]O3 into [C^14]-malonyl-CoA.
# Adipocytes were prepared with the method described in the HSL assay. Hepatocytes were prepared from the livers of male Wistar rats by collagenase digestion. The liver was finely-cut with scissors and transferred to a 250 ml Erlenmeyer flask containing 30 ml of digestion medium. The digestion medium contained microbial collagenase (Type IV) at a concentration of 30 mg/ml in calcium-free Krebs-Ringer phosphate buffer (pH 7.4) and glucose (5 mM). […]
# The isolated cells were first preincubated at 37° C. for 30 minutes in a mixture containing 50 mM Tris-HCl buffer (pH 7.5), 10 mM potassium citrate, 10 mM MgCl2, 1 mM dithiothreitol (DTT), and BSA (0.8 mg/ml). […] The [C^14] radioactivity was measured with a liquid scintillation counter. […] Specific activity of the enzyme was expressed as mU/g cell dry weight, where 1 U of acetyl-CoA carboxylase was defined as that amount which catalyzed the carboxylation of 1 μmole acetyl-CoA per minute.
# [3] = tested on: isolated adipocytes of normal rats; assay: Diacylglycerol (DAG) release from isolated adipocytes
# Method: FIG. 8 illustrates the in vitro effect of hGH 177-191 on the release of diacylglycerol from isolated adipocytes of normal rats over an incubation period of 40 min. Diacylglycerol was quantitated using radioenzymic assay and the results were expressed as % increase over the basal levels.
# Diacylglycerol released from isolated adipose tissue or adipocytes was quantitated using a radioenzymic assay, employing E coli DAG kinase and defined mixed micelle conditions to solubilize DAG and allow its quantitative conversion to [^33p] phosphatidic acid in the presence of [^33p]-γ-ATP.
sequence,measurement,setting,value
LRIVQCRSVEGSCGF (cysteine pairing not given here) [Ref No. 9401],effect on hormone-sensitive lipase (in words),[1],effective in stimulating
same,effect on acetyl CoA carboxylase (in words),[2],inhibiting
same,production/release of diacylglycerol (in words),[3],activation of the production
